Drawing on patent publication US8785482B2, “Cyclohexene benzotriazole derivatives” (Merck Sharp & Dohme Corp., priority 2011, dated 2014), this text covers EC50 for 11 compounds.

Molecules are shown by their SMILES.

T1 sequence (Q14416 19-872): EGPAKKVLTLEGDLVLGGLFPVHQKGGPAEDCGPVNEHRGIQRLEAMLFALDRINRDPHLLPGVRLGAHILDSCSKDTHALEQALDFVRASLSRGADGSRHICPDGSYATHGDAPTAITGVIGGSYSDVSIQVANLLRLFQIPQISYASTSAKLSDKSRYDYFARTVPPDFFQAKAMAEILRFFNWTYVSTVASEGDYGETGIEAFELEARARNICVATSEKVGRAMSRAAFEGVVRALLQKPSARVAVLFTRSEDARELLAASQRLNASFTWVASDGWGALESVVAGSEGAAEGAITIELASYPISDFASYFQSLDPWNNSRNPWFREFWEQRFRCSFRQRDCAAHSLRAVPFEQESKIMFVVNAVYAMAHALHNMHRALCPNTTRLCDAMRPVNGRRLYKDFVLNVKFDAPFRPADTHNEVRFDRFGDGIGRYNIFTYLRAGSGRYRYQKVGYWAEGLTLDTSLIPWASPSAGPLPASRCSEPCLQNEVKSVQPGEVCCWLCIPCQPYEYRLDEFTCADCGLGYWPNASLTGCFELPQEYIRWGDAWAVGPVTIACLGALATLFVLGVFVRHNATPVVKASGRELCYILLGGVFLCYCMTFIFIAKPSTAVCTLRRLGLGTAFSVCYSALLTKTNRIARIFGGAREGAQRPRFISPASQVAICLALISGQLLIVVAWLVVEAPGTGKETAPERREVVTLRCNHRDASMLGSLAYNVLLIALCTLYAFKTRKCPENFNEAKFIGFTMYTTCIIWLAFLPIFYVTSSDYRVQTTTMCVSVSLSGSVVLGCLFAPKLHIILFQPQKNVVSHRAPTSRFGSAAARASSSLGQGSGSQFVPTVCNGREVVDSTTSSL

This experiment addresses T1, recombinant human mGluR2 (Homo sapiens, UniProt Q14416).
T1 construct: expressed in transfected cells
The experiment can be described thus: FLIPR Ca2+ mobilization assay, potentiation of glutamate response. Type of experiment: cell-based. The settings on record: CHO dhfr- cells expressing human mGluR2 and Gα16, EC20 glutamate (900 nM). As to the method:
Potencies are determined as follows. The compounds of the present invention may be tested in a fluorescence laser imaging plate reader (FLIPR) based assay. This assay is a common functional assay to monitor Ca^2+ mobilization in whole cells expressing recombinant receptor coupled with a promiscuous G-protein. CHO dhfr-cells stably expressing recombinant human mGluR2 and Gα16 loaded with Fluo-4 AM (Invitrogen, Carlsbad Calif.) are treated with varying concentrations of compounds and the Ca^2+ response is monitored on a FLIPR384 (Molecular Devices, Sunnydale Calif.) for agonist activity. The potentiation response is monitored after a subsequent addition of an EC20 concentration of glutamate (900 nM). The maximum calcium response at each concentration of compound for agonism or potentiation are plotted as dose responses curves fitted with a four parameters logistic equation giving EC50 and Hill coefficient using the iterative non linear curve fitting software program.
Such results are indicative of the intrinsic activity of the compounds in use as potentiators of mGluR2 receptor activity.
On the technique in general: A change in cytosolic calcium serves as a functional read-out for many receptors and channels.
Take `OCC1CC=C(c2ccc3c(nnn3CC3CC3)c2Br)CC1` (centres unmarked) [Example 10, {4-[4-Bromo-1-(cyclopropylmethyl)-1H-benzotriazol-5-yl]cyclohex-3-en-1-yl}methanol]: the concentration for a half-maximal effect (EC50) came to 52 nM. To `Clc1c(C2=CCCCC2)ccc2c1nnn2CC1CC1` [Example 4, 4-chloro-5-cyclohex-1-en-1-yl-1-(cyclopropylmethyl)-1H-benzotriazole] belongs 947 nM; to `OCC1CC=C(c2ccc3c(nnn3CC3CC3)c2Cl)CC1` (centres unmarked) [Example 2, {4-[4-Chloro-1-(cyclopropylmethyl)-1H-benzotriazol-5-yl]cyclohex-3-en-1-yl}methanol], 77 nM; to `CN1C(=O)CN(CC2CC=C(c3ccc4c(nnn4CC4CC4)c3Br)CC2)C1=O` (centres unmarked) [Example 11, 1-({4-[4-Bromo-1-(cyclopropylmethyl)-1H-benzotriazol-5-yl]cyclohex-3-en-1-yl}methyl)-3-methylimidazolidine-2,4-dione], 9.2 nM. To `CN1C(=O)CN(CC2CC=C(c3ccc4c(nnn4CC4CC4)c3C(F)(F)F)CC2)C1=O` (centres unmarked) [Example 8, 1-({4-[1-(Cyclopropylmethyl)-4-(trifluoromethyl)-1H-benzotriazol-5-yl]cyclohex-3-en-1-yl}methyl)-3-methylimidazolidine-2,4-dione] belongs 15 nM; to `CN1CC(c2ccc3c(nnn3CC(C)(C)C)c2Br)=CCC1CO` (centres unmarked) [Example 9, {5-[4-Bromo-1-(2,2-dimethylpropyl)-1H-benzotriazol-5-yl]-1-methyl-1,2,3,6-tetrahydropyridin-2-yl}methanol], 1560 nM. Consider `COC(=O)C1CC=C(c2ccc3c(nnn3CC3CC3)c2Cl)CC1` (centres unmarked) [Example 1, Methyl 4-[4-chloro-1-(cyclopropylmethyl)-1H-benzotriazol-5-yl]cyclohex-3-ene-1-carboxylate], for which the EC50 was 373 nM. To `N#CC1CC=C(c2ccc3c(nnn3CC3CC3)c2Cl)CC1` (centres unmarked) [Example 6, 4-[4-chloro-1-(cyclopropylmethyl)-1H-benzotriazol-5-yl]cyclohex-3-ene-1-carbonitrile] belongs 701 nM. Under `CN1C(=O)CN(CC2CC=C(c3ccc4c(nnn4CC4CC4)c3Cl)CC2)C1=O` (centres unmarked) [Example 3, 1-({4-[4-Chloro-1-(cyclopropylmethyl)-1H-benzotriazol-5-yl]cyclohex-3-en-1-yl}methyl)-3-methylimidazolidine-2,4-dione] stands 17 nM.

Turning to `COC(=O)C1CC=C(c2ccc3c(nnn3CC3CC3)c2C(F)(F)F)CC1` (centres unmarked) [Example 7, Methyl 4-[1-(cyclopropylmethyl)-4-(trifluoromethyl)-1H-benzotriazol-5-yl]cyclohex-3-ene-1-carboxylate], the EC50 turned out to be 31 nM. As to `OC1CC=C(c2ccc3c(nnn3CC3CC3)c2Cl)CC1` (centres unmarked) [Example 5, 4-[4-chloro-1-(cyclopropylmethyl)-1H-benzotriazol-5-yl]cyclohex-3-en-1-ol], the EC50 was determined as 408 nM.

As usually defined, the EC50 is the concentration giving half of the maximal effect.
